Molecular target: CFTR-mediated chloride transport (Homo sapiens, UniProt P13569)
Format: cell-based
Settings: enteroid cells incubated with test compound 18-24 hours, acute 10 μM forskolin and 300 nM Compound III; for Max. Activity: % of chloride transport with 3 μM Compound A, 3 μM Compound II and 300 nM acute Compound III triple combination control
Outline: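 Human intestinal enteroid cells incubated with compound 18–24 h at 37° C., then membrane potential dye (FLIPR) read 15 min after chloride-free stimulation with 10 μM forskolin, 100 μM IBMX and 300 nM Compound III. AUC expressed as % of triple-combination control (3 μM Compound A, 3 μM Compound II, 300 nM Compound III).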

Chain of CFTR-mediated chloride transport (P13569 whole entry, looked up): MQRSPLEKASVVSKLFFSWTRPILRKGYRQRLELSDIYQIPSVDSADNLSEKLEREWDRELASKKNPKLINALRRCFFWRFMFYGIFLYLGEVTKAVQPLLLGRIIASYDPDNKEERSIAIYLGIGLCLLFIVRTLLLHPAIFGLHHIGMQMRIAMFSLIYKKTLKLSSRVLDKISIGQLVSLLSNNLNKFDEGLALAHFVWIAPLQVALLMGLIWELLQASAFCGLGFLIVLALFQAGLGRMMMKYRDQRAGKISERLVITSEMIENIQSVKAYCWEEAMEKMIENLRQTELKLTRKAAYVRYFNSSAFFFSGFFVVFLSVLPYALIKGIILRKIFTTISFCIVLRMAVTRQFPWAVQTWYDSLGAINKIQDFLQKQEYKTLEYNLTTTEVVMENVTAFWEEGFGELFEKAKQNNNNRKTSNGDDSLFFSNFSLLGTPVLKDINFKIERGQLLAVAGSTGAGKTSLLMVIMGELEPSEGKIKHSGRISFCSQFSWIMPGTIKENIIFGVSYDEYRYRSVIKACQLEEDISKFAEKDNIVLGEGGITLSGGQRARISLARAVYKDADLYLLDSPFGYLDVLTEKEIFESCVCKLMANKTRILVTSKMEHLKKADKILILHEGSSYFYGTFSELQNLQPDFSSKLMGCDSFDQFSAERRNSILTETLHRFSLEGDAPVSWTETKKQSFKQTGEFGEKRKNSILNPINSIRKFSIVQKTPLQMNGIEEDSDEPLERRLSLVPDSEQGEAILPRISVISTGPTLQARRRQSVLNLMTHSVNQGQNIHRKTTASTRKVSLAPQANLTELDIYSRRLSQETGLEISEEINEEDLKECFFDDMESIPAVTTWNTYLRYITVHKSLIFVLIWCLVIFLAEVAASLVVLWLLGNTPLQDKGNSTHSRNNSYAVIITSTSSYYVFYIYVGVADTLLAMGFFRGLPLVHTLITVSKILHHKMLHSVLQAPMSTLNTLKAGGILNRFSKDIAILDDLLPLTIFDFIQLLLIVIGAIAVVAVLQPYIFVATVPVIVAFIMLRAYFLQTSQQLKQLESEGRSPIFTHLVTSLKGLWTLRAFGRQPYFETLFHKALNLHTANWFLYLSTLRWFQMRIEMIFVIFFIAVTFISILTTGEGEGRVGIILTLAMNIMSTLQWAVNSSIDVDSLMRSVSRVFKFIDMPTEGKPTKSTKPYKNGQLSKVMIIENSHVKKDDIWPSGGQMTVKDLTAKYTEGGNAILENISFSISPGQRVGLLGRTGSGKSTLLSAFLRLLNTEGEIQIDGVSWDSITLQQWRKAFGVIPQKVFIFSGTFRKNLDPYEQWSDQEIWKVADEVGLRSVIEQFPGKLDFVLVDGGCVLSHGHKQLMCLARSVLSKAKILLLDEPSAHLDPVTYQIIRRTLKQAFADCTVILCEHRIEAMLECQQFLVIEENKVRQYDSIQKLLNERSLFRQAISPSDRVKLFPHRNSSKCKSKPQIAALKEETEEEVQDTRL

| SMILES | EC50 [µM] | Max. Activity |
| --- | --- | --- |
| CC1(C)C[C@@H]2CCCNc3cccc(n3)S(=O)(=O)NC(=O)c3ccc(N4CCC5(CCCCC5)C4=O)nc3N1C2 [Compound 222, (14S)-12,12-dimethyl-8-{1-oxo-2-azaspiro[4.5]decan-2-yl}-2λ^6-thia-3,9,11,18,23-pentaazatetracyclo[17.3.1.111,14.05,10]tetracosa-1(22),5,7,9,19(23),20-hexaene-2,2,4-trione] | < 1 | ++ (++ is 30-60%) |
| CC1(C)C[C@@H]2CCCNc3cccc(n3)S(=O)(=O)NC(=O)c3ccc(N4CCN(CCC(C)(C)C(F)(F)F)C4=O)nc3N1C2 [Compound 223, (14S)-12,12-Dimethyl-8-[2-oxo-3-(4,4,4-trifluoro-3,3-dimethylbutyl)imidazolidin-1-yl]-2λ^6-thia-3,9,11,18,23-pentaazatetracyclo[17.3.1.111,14.05,10]tetracosa-1(22),5,7,9,19(23),20-hexaene-2,2,4-trione] | < 1 | +++ (+++ is >60%) |
| CC1(C)C[C@@H]2CCCNc3cccc(n3)S(=O)(=O)NC(=O)c3ccc(N4CCN(CC(C)(C)C(F)(F)F)C4=O)nc3N1C2 [Compound 225, (14S)-12,12-dimethyl-8-[2-oxo-3-(3,3,3-trifluoro-2,2-dimethylpropyl)imidazolidin-1-yl]-2λ^6-thia-3,9,11,18,23-pentaazatetracyclo[17.3.1.111,14.05,10]tetracosa-1(22),5,7,9,19(23),20-hexaene-2,2,4-trione] | < 1 | ++ (++ is 30-60%) |
| CC1(C)C[C@@H]2CCCNc3cccc(n3)S(=O)(=O)NC(=O)c3ccc(N4CCN(CCC56CC7CC(CC(C7)C5)C6)C4=O)nc3N1C2 [Compound 228, (14S)-8-{3-[2-(Adamantan-1-yl)ethyl]-2-oxoimidazolidin-1-yl}-12,12-dimethyl-2λ^6-thia-3,9,11,18,23-pentaazatetracyclo[17.3.1.111,14.05,10]tetracosa-1(22),5,7,9,19(23),20-hexaene-2,2,4-trione] | < 1 | ++ (++ is 30-60%) |
| CC1(C)C[C@@H]2CCCNc3cccc(n3)S(=O)(=O)NC(=O)c3ccc(N4CCN(CC56CC7CC(CC(C7)C5)C6)C4=O)nc3N1C2 [Compound 229, (14S)-8-{3-[(adamantan-1-yl)methyl]-2-oxoimidazolidin-1-yl}-12,12-dimethyl-2λ^6-thia-3,9,11,18,23-pentaazatetracyclo[17.3.1.111,14.05,10]tetracosa-1(22),5,7,9,19(23),20-hexaene-2,2,4-trione] | < 1 | ++ (++ is 30-60%) |
| CC1(C)C[C@@H]2CCCNc3cccc(n3)S(=O)(=O)NC(=O)c3ccc(N4CCN(C56CC7CC(CC(C7)C5)C6)C4=O)nc3N1C2 [Compound 230, (14S)-8-[3-(Adamantan-1-yl)-2-oxoimidazolidin-1-yl]-12,12-dimethyl-2λ^6-thia-3,9,11,18,23-pentaazatetracyclo[17.3.1.111,14.05,10]tetracosa-1(22),5,7,9,19(23),20-hexaene-2,2,4-trione] | < 1 | + (+ is <30%) |
| CC(C)(C)CCN1CCN(c2ccc3c(n2)N2C(CCCNc4cccc(n4)S(=O)(=O)NC3=O)CCC2(C)C)C1=O (stereo not shown) [Compound 232, 8-[3-(3,3-dimethylbutyl)-2-oxoimidazolidin-1-yl]-12,12-dimethyl-2λ^6-thia-3,9,11,19,24-pentaazatetracyclo[18.3.1.05,10.011,15]tetracosa-1(23),5,7,9,20(24),21-hexaene-2,2,4-trione] | > 3 | + (+ is <30%) |
| CC1(C)C[C@@H]2CCCNc3cccc(n3)S(=O)(=O)NC(=O)c3ccc(N4CCC(OCCC(C)(C)C(F)(F)F)C4=O)nc3N1C2 (stereo partly drawn) [Compound 237, (14S)-12,12-dimethyl-8-[2-oxo-3-(4,4,4-trifluoro-3,3-dimethylbutoxy)pyrrolidin-1-yl]-2λ^6-thia-3,9,11,18,23-pentaazatetracyclo[17.3.1.111,14.05,10]tetracosa-1(22),5,7,9,19(23),20-hexaene-2,2,4-trione] | < 1 | +++ (+++ is >60%) |
| CC1(C)C[C@@H]2CCCNc3nc(ccc3O)S(=O)(=O)NC(=O)c3ccc(-n4ccc(OCCC5C6(CC6)C56CC6)n4)nc3N1C2 [Compound 254, (14S)-8-[3-(2-{dispiro[2.0.2.1]heptan-7-yl}ethoxy)-1H-pyrazol-1-yl]-20-hydroxy-12,12-dimethyl-2λ^6-thia-3,9,11,18,23-pentaazatetracyclo[17.3.1.111,14.05,10]tetracosa-1(23),5,7,9,19,21-hexaene-2,2,4-trione] | < 1 | ++ (++ is 30-60%) |
| CC1(C)C[C@@H]2CCCNc3nc(ccc3O)S(=O)(=O)NC(=O)c3ccc(-n4ccc(OCCCC5(C(F)(F)F)CC5)n4)nc3N1C2 [Compound 255, (14S)-20-hydroxy-12,12-dimethyl-8-(3-{3-[1-(trifluoromethyl)cyclopropyl]propoxy}-1H-pyrazol-1-yl)-2λ^6-thia-3,9,11,18,23-pentaazatetracyclo[17.3.1.111,14.05,10]tetracosa-1(22),5,7,9,19(23),20-hexaene-2,2,4-trione] | < 1 | ++ (++ is 30-60%) |
| CC1(C)C[C@@H]2CCCNc3cccc(n3)S(=O)(=O)NC(=O)c3ccc(-n4ccc(OCC(O)C5C6(CC6)C56CC6)n4)nc3N1C2 (stereo partly drawn) [Compound 257, (14S)-8-[3-(2-{dispiro[2.0.2.1]heptan-7-yl}-2-hydroxyethoxy)-1H-pyrazol-1-yl]-12,12-dimethyl-2λ^6-thia-3,9,11,18,23-pentaazatetracyclo[17.3.1.111,14.05,10]tetracosa-1(22),5,7,9,19(23),20-hexaene-2,2,4-trione] | < 1 | +++ (+++ is >60%) |
| CC1(C)C[C@@H]2CCCNc3cccc(n3)S(=O)(=O)NC(=O)c3ccc(-n4ccc(OCC(=O)C5C6(CC6)C56CC6)n4)nc3N1C2 [Compound 258, (14S)-8-[3-(2-{Dispiro[2.0.2.1]heptan-7-yl}-2-oxoethoxy)-1H-pyrazol-1-yl]-12,12-dimethyl-2λ^6-thia-3,9,11,18,23-pentaazatetracyclo[17.3.1.111,14.05,10]tetracosa-1(22),5,7,9,19(23),20-hexaene-2,2,4-trione] | < 1 | +++ (+++ is >60%) |
| CC1(C)C[C@@H]2CCCNc3ccc(O)c(n3)S(=O)(=O)NC(=O)c3ccc(-n4ccc(OCCC5C6(CC6)C56CC6)n4)nc3N1C2 [Compound 260, (14S)-8-[3-(2-{dispiro[2.0.2.1]heptan-7-yl}ethoxy)-1H-pyrazol-1-yl]-22-hydroxy-12,12-dimethyl-2λ^6-thia-3,9,11,18,23-pentaazatetracyclo[17.3.1.111,14.05,10]tetracosa-1(22),5,7,9,19(23),20-hexaene-2,2,4-trione] | < 1 | +++ (+++ is >60%) |
| CC1(C)C[C@@H]2CCCNc3ccc(O)c(n3)S(=O)(=O)NC(=O)c3ccc(-n4ccc(OCCCC5(C(F)(F)F)CC5)n4)nc3N1C2 [Compound 261, (14S)-22-hydroxy-12,12-dimethyl-8-(3-{3-[1-(trifluoromethyl)cyclopropyl]propoxy}-1H-pyrazol-1-yl)-2λ^6-thia-3,9,11,18,23-pentaazatetracyclo[17.3.1.111,14.05,10]tetracosa-1(22),5,7,9,19(23),20-hexaene-2,2,4-trione] | < 1 | ++ (++ is 30-60%) |

Source: US11866450B2, “Modulators of Cystic Fibrosis Transmembrane Conductance regulator, pharmaceutical compositions, methods of treatment, and process for making the modulators” (priority 2018, dated 2024)
